By EC50 is commonly meant the concentration that produces a half-maximal response.

Data on 1 compound can be found in ChEMBL document CHEMBL5729407, “Substituted piperidine compounds and their use” (2022).

The target in one experiment is T1, Orexin receptor type 2 (Homo sapiens, UniProt O43614).
T1 sequence (O43614 whole entry): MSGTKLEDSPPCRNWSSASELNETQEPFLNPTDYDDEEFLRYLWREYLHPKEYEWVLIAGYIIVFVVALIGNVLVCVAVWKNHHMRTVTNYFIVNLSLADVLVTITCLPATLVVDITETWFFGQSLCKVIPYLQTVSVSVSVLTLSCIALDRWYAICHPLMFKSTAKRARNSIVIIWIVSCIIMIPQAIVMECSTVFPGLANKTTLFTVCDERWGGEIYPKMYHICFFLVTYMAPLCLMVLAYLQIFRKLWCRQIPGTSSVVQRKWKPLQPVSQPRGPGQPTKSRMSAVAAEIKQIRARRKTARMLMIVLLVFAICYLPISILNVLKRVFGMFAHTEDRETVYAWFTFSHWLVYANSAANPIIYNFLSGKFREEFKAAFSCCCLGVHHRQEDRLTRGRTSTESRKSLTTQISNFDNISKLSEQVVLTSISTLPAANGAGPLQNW
As to the kind of experiment: (§1) Evaluation of Activity for OX1R and OX2R: HEK293 (human embryonic kidney 293) cells with forced expression of human OX1R (hOX1R) or human OX2R (hOX2R) were seeded in a 384-well microplate (Greiner) at 10,000 per well and cultured for 1 day in high-glucose-DMEM (FujiFilm Corp.—Wako Pure Chemical Industries, Ltd.) containing added 10% FBS ([…]) and 1% Penicillin-Streptomycin (FujiFilm Corp.—Wako Pure Chemical Industries, Ltd.). After removing the medium, 40 μL of assay buffer (20 mM HEPES (Sigma-Aldrich Japan, KK.), Hanks' balanced salt solution (Gibco), 0.1% BSA (Sigma-Aldrich Japan, KK.), 0.1% Pluronic F-127 (Invitrogen)) containing Calcium 4 dye (Molecular Device Corporation) and 2.5 mM probenecid (Sigma-Aldrich Japan, KK.) were added, and the plate was incubated for 60 minutes. After further adding 20 μL of assay buffer, 20 μL of assay buffer containing the test compound was added and reaction was initiated. Change in intracellular calcium ion concentration during the reaction was measured based on the fluorescence intensity ratio in terms of the fluorescence value with wavelength excitation at 480 nm and detection at 540 nm, using FDSS7000 (Hamamatsu Photonics, K.K.). The test compound was dissolved in DMSO to 10 mM, and diluted with assay buffer to a final concentration of from 3×10−11 M to 1×10−7 M (DMSO final concentration of 0.1%). […]. Format: cell-based.

Experiment [1] has as its target T2, Orexin/Hypocretin receptor type 1 (Homo sapiens, UniProt O43613).
T2 sequence (O43613 whole entry): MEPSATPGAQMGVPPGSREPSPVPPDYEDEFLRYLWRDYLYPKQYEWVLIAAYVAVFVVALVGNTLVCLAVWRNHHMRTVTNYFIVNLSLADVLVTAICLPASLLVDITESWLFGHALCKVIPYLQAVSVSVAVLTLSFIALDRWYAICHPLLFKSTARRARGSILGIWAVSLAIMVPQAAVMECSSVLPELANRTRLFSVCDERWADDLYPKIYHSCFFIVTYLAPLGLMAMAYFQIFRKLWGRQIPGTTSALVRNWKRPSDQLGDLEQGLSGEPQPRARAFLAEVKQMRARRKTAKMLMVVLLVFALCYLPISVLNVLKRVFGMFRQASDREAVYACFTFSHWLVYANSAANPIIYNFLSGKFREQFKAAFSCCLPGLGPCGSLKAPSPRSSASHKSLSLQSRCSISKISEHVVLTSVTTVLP
The experiment is described as §1. In kind it is cell-based.

For `CO[C@@H]1CN(c2ncc(F)cn2)CC[C@@H]1[C@@H]1C[C@H]2CC[C@@H](C1)N2[C@@H](C(N)=O)C(C)C`, the EC50 on Orexin receptor type 2 is 3.08 nM; in experiment [1], more than 100 nM.
